Test results taken from patent publication US8952033B2, “4-anilinofuro[2,3-b]quinoline derivatives, their preparation processes, and pharmaceutical compositions comprising the same” (Kaohsiung Medical University, priority 2011, dated 2015).

Key:
NCI-H460 cells = assay: In vivo inhibition of lung cancer cells, NCI-H460 tumor in nude mice; parameters: species or system Balb/C athymic nude mice; conditions: for Survival rate: Day 80 (control all dead)
Procedure: 10^6 NCI-H460 cells were mixed evenly with a proper amount of Matrigel (BD Biosciences). The resultant mixture was injected subcutaneously into each of the nude mice on a dorsal flank close to an upper portion of a hind leg.
The nude mice bearing a tumor were randomly divided into two groups. The first group (n=14) of the nude mice was used to evaluate the effect of compound 13a after intraperitoneal injection, and was further divided into three subgroups including 10 mg/kg group (n=4), 20 mg/kg group (n=6), and a control group (n=4). Compound 13a (in DMSO/Tween 80/PBS (1/1/8, v/v/v)) was administered to the nude mice in 10 mg/kg group and 20 mg/kg group respectively at a dose of 10 mg/kg and a dose of 20 mg/kg via intraperitoneal injection, and 5% dextrose was administered to the nude mice in the control group at the same dosing volume as compound 13a via intraperitoneal injection.
The second group (n=28) of the nude mice was used to evaluate the effect of compound 13a after oral administration, and was further divided into three subgroups including 60 mg/kg group (n=10), 120 mg/kg group (n=10), and a control group (n=8). Compound 13a (in a normal saline solution containing 1% DMSO, 1.4% Tween 80, and 1% sodium carboxymethyl cellulose (Sigma), and serving as a vehicle) was administered to the nude mice in 60 mg/kg group and 120 mg/kg group respectively at a dose of 60 mg/kg and a dose of 120 mg/kg via tube feeding (0.22-0.26 mL of the mixture of compound 13a and the vehicle/nude mouse), and the vehicle was administered to the mice in the control group at a dose of 10 mL/kg via tube feeding.
Administration was conducted once daily for 6 consecutive days. For the first group of the nude mice, the size of the tumor on the dorsal flank was measured with calipers every 9 days for 100 consecutive days. For the second group of the nude mice, the survival rate was calculated every 10 days starting on Day 1 (i.e., the day of the […] administration) for 80 consecutive days, and the size of the tumor on the dorsal flank was measured with the calipers every 3 days for 32 consecutive days.

[1] = test system: CL1-5 (metastatic lung adenocarcinoma cell); assay: Preferential antiproliferative activity, CL1-5; format: cell-based
Procedure: (§1) Determination of GI50 of compounds 13a, 13c, 14a, 14c, 15a, 16a was conducted substantially according to the method as described in the preceding section A entitled “Evaluation of antiproliferative activity”, except that the normal cell line MRC-5 was also utilized, and that camptothecin and daunorubicin were tested instead of compounds 1, 2, 3. The concentration of the respective test compound, which can reduce absorbance by 50% (compared with DMSO), is regarded as GI50, and can be determined via dose-response curves. Determination of GI50 was conducted thrice for each test compound. GI50 is expressed as mean±SD.
(§2) SI stands for selectivity index and was calculated by substituting GI50 into the following formula: D=E/F (2) where • D=SI • E=GI50 of the respective test compound for cells of the normal cell line • F=GI50 of the respective test compound for cells of the cancer cell line The experimental results are summarized in Table 4. […]

NCI-H611 = assay: Preferential antiproliferative activity, NCI-H611; format: cell-based
Procedure: as §1, §2

[2] = test system: NCI-H460 (non-small cell lung carcinoma cell); assay: MTT antiproliferative assay (cell growth %, GI50), NCI-H460; format: cell-based
Procedure, shortened: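 Cells exposed to compounds in DMSO or vehicle for 48 hours; MTT (2 mg/mL) added before and after treatment for 2 hours, formazan dissolved in DMSO and OD570 read. GI50 from three determinations, reported as mean±SD.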

[3] = test system: AGS (human stomach adenocarcinoma cell); assay: Preferential antiproliferative activity, AGS; format: cell-based
Procedure: as §1, §2

[4] = test system: A549 (human lung adenocarcinoma cell); assay: Preferential antiproliferative activity, A549; format: cell-based
Procedure: as §1, §2

[5] = test system: NCI-H1299 (non-small cell lung carcinoma cell); assay: Preferential antiproliferative activity, NCI-H1299; format: cell-based
Procedure: as §1, §2

[6] = test system: HeLa (human cervical epithelioid carcinoma cell); assay: Preferential antiproliferative activity, HeLa; format: cell-based
Procedure: as §1, §2

[7] = test system: SKHep-1 (hepatocellular carcinoma cell); assay: Preferential antiproliferative activity, SKHep; format: cell-based
Procedure: as §1, §2

[8] = test system: BT483 (human breast carcinoma cell); assay: Preferential antiproliferative activity, BT483; format: cell-based
Procedure: as §1, §2

[9] = test system: SAS (human oral squamous-cell carcinoma cell); assay: Preferential antiproliferative activity, SAS; format: cell-based
Procedure: as §1, §2

[10] = test system: SF-268 (central nervous system carcinoma cell); assay: MTT antiproliferative assay (cell growth %, GI50), SF-268; format: cell-based
Procedure: (§3) Antiproliferative activities of the compounds of this invention were evaluated substantially according to the method as described in Tseng, C. […] The cells were treated with the test compounds, i.e., the compounds of this invention (in dimethylsulfoxide (DMSO)), or DMSO for 48 hours.
(§4) Before and after the treatment with the test compounds or DMSO, 3-(4,5-dimethylthiazol-2-yl)-2,5-diphenyltetrazolium bromide (MTT, 2 mg/mL, 100 μL) was added to each of the cultures, followed by cultivation for 2 hours. The resultant formazan was dissolved by the addition of DMSO. Absorbance at 570 nm (OD570) was measured using a microtiter plate reader (Dynex MRX-II).
(§5) Determination of GI50 was conducted thrice for each test compound. GI50 is expressed as mean±SD.

[11] = test system: MRC-5 (human lung fibroblast cell); assay: GI50 determination on normal cell line MRC-5; format: cell-based; conditions: MRC5, normal cell line, mean±SD, read-out: GI50 MRC-5
Procedure: as §3, §4, §5

C/C(=N\OCCN)c1ccc(Nc2c3ccccc3nc3occc23)cc1 [Compound 13a, (E)-1-(4-(furo[2,3-b]quinolin-4-ylamino)phenyl)ethanone O-2-aminoethyl oxime]
Size of the tumor (NCI-H460 cells; intraperitoneal injection, 10 mg/kg and 20 mg/kg once daily for 6 days, versus control): generally grew more slowly with time
Size of the tumor (NCI-H460 cells; oral administration, 60 mg/kg and 120 mg/kg once daily for 6 days, versus control): generally grew more slowly with time
Survival rate (NCI-H460 cells; oral administration, 60 mg/kg group): 50%
Survival rate (NCI-H460 cells; oral administration, 120 mg/kg group): 50%
Size of the tumor (NCI-H460 cells; oral administration, 120 mg/kg once daily for 6 days): diminished in size after Day 16
GI50 ([1]; CL1-5, result based on a single trial): 5.18 µM
SI CL1-5 ([1]; versus MRC-5): 8.27
GI50 (NCI-H611; mean±SD): 0.98 ± 0.27 µM
SI NCI-H611 (NCI-H611; versus MRC-5): 43.72
SI NCI-H460 ([2]; GI50 MRC-5 / GI50 NCI-H460): 68.02
activity at 4000 µg/mL ([2]; Homo sapiens, NCI-H460, 4 mg/ml, 48 hours, MTT): 33%
activity at 20000 µg/mL ([2]; Homo sapiens, NCI-H460, 20 mg/ml, 48 hours, MTT): -1%
GI50 ([2]; Homo sapiens, NCI-H460, mean±SD, read-out: GI50 NCI-H460): 0.63 ± 0.03 µM
GI50 ([3]; Homo sapiens, mean±SD): 13.77 ± 0.04 µM
SI AGS ([3]; versus MRC-5): 3.09
GI50 ([4]; Homo sapiens, A549, mean±SD): 6.58 ± 2.99 µM
SI A549 ([4]; versus MRC-5): 6.51
GI50 ([5]; Homo sapiens, NCI-H1299, mean±SD): 3.08 ± 1.12 µM
SI NCI-H1299 ([5]; versus MRC-5): 13.91
GI50 ([6]; Homo sapiens, HeLa, mean±SD): 8.31 ± 0.6 µM
SI HeLa ([6]; versus MRC-5): 5.16
GI50 ([7]; Homo sapiens, SK-HEP1, mean±SD): 13.1 ± 3.75 µM
SI SKHep ([7]; versus MRC-5): 3.26
GI50 ([8]; Homo sapiens, BT-483, mean±SD): 10.2 ± 0.9 µM
SI BT483 ([8]; versus MRC-5): 4.22
GI50 ([9]; Homo sapiens, mean±SD): 15.5 ± 2.6 µM
SI SAS ([9]; versus MRC-5): 2.76
SI SF-268 ([10]; GI50 MRC-5 / GI50 SF-268): 6.84
GI50 ([10]; Homo sapiens, SF-268, mean±SD, read-out: GI50 SF-268): 6.26 ± 1.02 µM
GI50 [11]: 42.9 ± 1.05 µM
